Assay results as given in patent publication US4908380A, “Pharmaceutical compositions” (Imperial Chemical Industries plc, priority 1986, dated 1990).

Experiments:
thromboxane receptor = assay: Test (a): rabbit or rat aortal strip, TXA2 antagonism (agonist TXA2 or U46619); format: cell-based; conditions: ±0.05
Source text: It is believed that TXA2 exerts its physiological action through the thromboxane receptor, at which receptor various other prostanoid contractile substances derived from arachidonic acid, such as prostaglandins H2, F2 alpha and prostaglandin D2, can exert contractile effects. There are two principal ways in which the effects of TXA2 (and also of prostaglandins H2, F2 alpha and/or D2) can be ameliorated. […] The second way is to administer a pharmacological agent which inhibits one or more of the enzymes involved in the production of TXA2 and in particular, which inhibits the enzyme known as thromboxane synthetase (TXA2 synthetase). Such an agent is said to be a TXA2 synthetase inhibitor.
As stated earlier, the novel compounds of formula I are antagonists of one or more of the actions of TXA2, for example certain of its actions on blood platelets, the vasculature and/or the lung.
(a) The rabbit aortal strip model devised by Piper and Vane (Nature, 1969, 223, 29-35) or the rat aortal strip model developed by Kennedy et alia (Prostaglandins, 1982, 24, 667-689), using as agonist a freshly prepared sample of TXA2, generated by addition of arachidonic acid (25 μg) to citrated, platelet rich rabbit plasma (250 μl) and allowing the mixture to aggregate fully over 90 seconds before use; alternatively the TXA2 mimetic agent known as U46619 (described by R. L. Jones et alia in "Chemistry, Biochemistry and Pharmacological Activity of Prostanoids" edited by S. M. Roberts and F. Scheinmann, at page 211; Pergamon Press, 1979) may be used as the agonist; and
Using the above test procedures (a)-(c), the following representative results have been obtained with the compounds of formula II wherein (i) X^1 is 2-chloro, (ii) X^1 is 2-cyano; or (iii) X^1 is 4-cyano, respectively: […]

[1] = test system: arachidonic acid induced aggregation of human platelets; assay: Arachidonic acid induced aggregation of human platelets in vitro; format: cell-based; conditions: Platelet, read-out: % Inhibition of vehicle control
Source text: The beneficial effects of combining one of the novel TXA2 antagonists of formula I defined hereinabove with a TXA2 synthetase inhibitor may be illustrated in vitro, for example by evaluating their effects in inhibiting arachidonic acid induced aggregation of human platelets, using standard procedures well known in the art. Thus, for example, the following results were obtained with the TXA2 antagonist described hereinafter in Ex. 2, 6 and 20 (Compound A) and the TXA2 synthetase inhibitor known as dazoxiben (Compound B): […]

[2] = test system: U46619 induced hypertension; assay: Test (d): U46619 induced hypertension in anaesthetised male rats (Alderley Park strain); format: in vivo, rat; conditions: 1 hour after oral dose of 0.5 mg/kg
Experimental: (d) Male rats (Alderley Park strain) are anaesthetised with sodium pentobarbital and blood pressure is monitored at the carotid artery. The TXA2 mimetic agent U46619 is administered intravenously at 5 μg/kg via the jugular vein to produce 20-30 mm/Hg (2640-3970 pascal) increase in systolic blood pressure. The process is repeated twice to ensure adequacy of response. A test compound is then administered either intravenously (via the jugular vein) or orally (via a cannula) directly into the stomach and the animal challenged with U46619, five minutes after dosing with test compound and then successively every ten minutes until the hypertensive effect of U46619 is no longer blocked.

[3] = test system: U46619 induced bronchoconstriction; assay: Test (c): U46619 induced bronchoconstriction in Konzett-Rossler anaesthetised guinea-pig; format: in vivo; conditions: 2 hours after oral dosing at 0.05 mg/kg
Source text: (c) a bronchoconstriction test involving measuring the inhibition by a test compound of the bronchoconstriction induced in the Konzett-Rossler, anaesthetised guinea-pig model (as modified by Collier and James, Brit.J.Pharmacol., 1967, 30, 283-307) by intravenous administration of the TXA2 mimetic agent, U46619 and involving:
(i) obtaining a cumulative dose-response curve to U46619 induced bronchoconstriction by intravenous administration of constant volumes of increasing concentrations of U46619 (0.2-4 μg/kg) in physiological saline solution and expressing bronchoconstriction as the maximum of that theoretically obtainable with no air flow to the test animal;
(ii) generating a cumulative dose-response curve to U46619 induced bronchoconstriction at 30 minute intervals for 3 hours after oral dosing of test compound; and
(iii) calculating a dose-ratio for the test compound (that is the ratio of concentration of U46619 required to cause 50% bronchoconstriction in the presence and absence of test compound) indicating the potency of TXA2 antagonism.

diamondback moths = assay: Catches of diamondback moths (lures)

O=C(O)CC/C=C\C[C@@H]1CO[C@H](c2ccccc2Cl)O[C@@H]1c1ccccc1O (relative stereo) [(i), 4(Z)-6-([2,4,5-cis]-2-o-chlorophenyl-4-o-hydroxyphenyl-1,3-dioxan-5-yl)hexenoic acid]
pA2 (thromboxane receptor): 8.02
inhibition at 0.001 µM ([1]; A at 10^-9 M): 2.2 ± 0.8%
inhibition of U46619 induced hypertension [2]: > 80%

N#Cc1ccccc1[C@H]1OC[C@@H](C/C=C\CCC(=O)O)[C@@H](c2ccccc2O)O1 (relative stereo) [(ii), 4(Z)-6-([2,4,5-cis]-2-o-cyanophenyl-4-o-hydroxyphenyl-1,3-dioxan-5-yl)hexenoic acid]
pA2 (thromboxane receptor): 8.09
dose ratio [3]: > 32
inhibition of U46619 induced hypertension [2]: > 80%

N#Cc1ccc([C@H]2OC[C@@H](C/C=C\CCC(=O)O)[C@@H](c3ccccc3O)O2)cc1 (relative stereo) [(iii)]
pA2 (thromboxane receptor): 7.45
dose ratio [3]: > 350
inhibition of U46619 induced hypertension [2]: > 40%

O=C(O)CCC/C=C\C[C@@H]1CO[C@H](c2ccccc2Cl)O[C@@H]1c1ccccc1 (relative stereo) [(iv), 5(Z)-7-([2,4,5-cis]-2-o-chlorophenyl-4-phenyl-1,3-dioxan-5-yl)heptenoic acid, reference compound]
pA2 (thromboxane receptor): 6.22

N#Cc1ccc([C@H]2OC[C@@H](C/C=C\CCCC(=O)O)[C@@H](c3ccccc3)O2)cc1 (relative stereo) [(v), reference compound]
pA2 (thromboxane receptor): 5.65

O=C(O)c1ccc(OCCn2ccnc2)cc1 [B]
inhibition at 100 µM ([1]; B at 10^-4 M): 32.2 ± 16.3%
inhibition at 10 µM ([1]; B at 10^-5 M): 4.5 ± 1.8%

CCCC/C=C\CCCCCCCCCCOC(C)=O [HLA, ( --Z)-11-hexadecenyl acetate]
Weekly catch week 1 (diamondback moths; week 1): 0
Weekly catch week 2 (diamondback moths; week 2): 1
Weekly catch week 3 (diamondback moths; week 3): 5
Weekly catch week 4 (diamondback moths; week 4): 3
